The record followed here is patent US12251373B2, “Compounds and methods of treating retinal degeneration” (CASE WESTERN RESERVE UNIVERSITY, priority 2017, dated 2025).

A short description of series [1]: Metabolic stability in human liver microsomes. To be noted: 5 μM, with NADPH, vs verapamil. It counts as in vitro ADME. As for the experimental part:
A standard metabolic stability assay was performed in the presence of mouse or human liver microsomes. YC-001 (5 μM) was incubated with the microsomes (0.125 mg mL^−1) resuspended in 0.2 mL of PBS buffer, pH 7.4 composed of 10 mM Na2HPO4, 1.8 mM KH2PO4, 137 mM NaCl, and 2.7 mM KCl. The enzymatic reaction to produce oxidized metabolites was initiated by addition of NADPH (1 mM). Samples were incubated at 37° C. for up to 240 min. Incubation without the cofactor was conducted in parallel to assess NADPH-independent clearance. The reactions were stopped with 0.2 mL of methanol followed by 0.3 mL chloroform. Residual YC-001 was extracted by vigorous shaking. To facilitate phase separation, the samples were spun down for 2 min, 15,000×g. The chloroform fraction was collected, dried down, and the extracted organic compounds were redissolved in 0.2 mL of methanol. To quantify YC-001, the samples were injected onto an Eclipse XDB-C18 column (4.6×150 mm, 5 μm) (Agilent Technologies) equilibrated with solvent composed of 30% acetonitrile in water (v/v), and 0.1% formic acid. YC-001 was eluted in a gradient of acetonitrile in water (30-100%) developed within 15 min at a flow rate of 1 mL min^−1, detected at 350 nm, and quantified by correlating peak areas with known quantities of an original synthetic standard. […]
On the technique in general: Liver microsomes are vesicles of endoplasmic reticulum, rich in cytochrome P450 enzymes.

Another series has as its target T1, human rod opsin G106R (Homo sapiens, UniProt P08100, G106R).
T1 construct: expressed in transfected cells; host or cells: NIH3T3, transfected with pcDNA3.1-hOpsin mutant
The series can be described thus: Cell surface immunostain for rhodopsin mutants in NIH3T3 cells. The following applies: YC-001 treatment. The series is classed as cell-based. As to the method: (§1) Human rhodopsin cDNA was placed into the pcDNA3.1(+) vector (pcDNA3.1-hOpsin). Site directed mutagenesis was performed following the QuickChange II site-directed mutagenesis kit (Agilent Technologies Inc.). Primers for the following mutations were as follows: […]
(§2) DNA vectors with rhodopsin mutations were confirmed by Sanger sequencing. After NIH3T3 cells were transfected with pcDNA3.1-hOpsin or its mutants for 24 h, these cells were resuspended and seeded into a 96-well plate with an optic bottom (Corning). […] Each condition was repeated in three wells. The treated plate was covered in tin foil and incubated at 37° C. with 5% CO2 for 24 h. Cells were then immunostained with Alexa […] 488-conjugated B6-30 anti-rhodopsin antibody. Cells were not exposed to detergents so that cell membranes were kept intact and only rhodopsin on the cell surface was immunostained. Alexa 488 fluorescence was imaged by the ImageExpress (Molecular Devices) high-content imager with a 20× objective. Medicinal Chemistry of YC-001

Another series concerns the target T2, human rod opsin D190N (Homo sapiens, UniProt P08100, D190N).
T2 construct: expressed in transfected cells; host or cells: NIH3T3, transfected with pcDNA3.1-hOpsin mutant
Described as above. It counts as cell-based. To be noted: YC-001 treatment. As to the method: as §1, §2

Another series concerns the target T3, human rod opsin C110Y (Homo sapiens, UniProt P08100, C110Y).
T3 construct: expressed in transfected cells; host or cells: NIH3T3, transfected with pcDNA3.1-hOpsin mutant
The description is as above. It counts as cell-based. To be noted: YC-001 treatment. As for the experimental part:
as §1, §2

The next series addresses T4, human rod opsin P267L (Homo sapiens, UniProt P08100, P267L).
T4 construct: expressed in transfected cells; host or cells: NIH3T3, transfected with pcDNA3.1-hOpsin mutant
Described as above. To be noted: YC-001 treatment. It counts as cell-based. As to the method:
as §1, §2

Series [2] is described as follows: Quantification of YC-001 in mouse eye by HPLC. It counts as in vivo. As for the experimental part:
To measure the amount of YC-001 in the eye following systemic delivery, YC-001 was administered to C57BL6 mice by i.p. injection at a dose of 200 mg kg^−1 bw. Mice then were euthanized at 30 min, 3 h and 24 h after these injections, and their eyes were removed for analysis. Eyes from two mice under the same treatment were homogenized on ice in 1 mL of PBS:methanol (1:1 ratio). Four-mL of hexanes were then added to the homogenized sample, and the mixture was vortexed for 15 s. The mixture was centrifuged at 3,220 g for 15 min at 4° C. to separate the hexanes from the aqueous layer. From the top hexane layer, 3.5 mL was transferred to a glass vial. This sample was then dried in a Savant speed vacuum concentrator (Thermofisher, Waltham, Massachusetts, USA) and dissolved in 300 μL methanol. One hundred-μL of dissolved sample were injected into an HPLC system connected to an Agilent Sil column (5 μm, 4.6×250 mm; Agilent Technologies, Santa Clara, CA) for separation with 10% ethyl acetate in hexanes at a flow rate 1.4 mL min^−1. A chromatogram of absorption at 340 nm was then obtained. A YC-001 standard was subjected to the same procedures as the ocular samples and used to establish a retention time at 13.2 min. By comparing ocular samples to its standard curve of YC-001, the amount of YC-001 was then quantified in pmol eye^−1 at different time points after its systemic administration. The identity of YC-001 in the peak fraction with a retention time of 13.2 min was confirmed by LC-MS using the same chromatography method as applied for HPLC.

With `O=C1OCC(c2ccc(Cl)s2)=C1c1cccs1` [YC-001], the “initial clearance in liver microsomes” value in series [1] is reported as “even higher initial clearance”. Further, the “cell surface staining of mutant opsin” value is on record as “increased significantly” at human rod opsin G106R, “increased significantly” on human rod opsin D190N, “not effective” on human rod opsin C110Y and “increased significantly” at human rod opsin P267L. Also, the results for the “amount of YC-001 per eye” value in series [2] (0.5 h after i.p. injection at 200 mg kg−1 bw), in series [2] (3 h after i.p. injection at 200 mg kg−1 bw) and in series [2] (24 h after i.p. injection at 200 mg kg−1 bw) were “About 70 pmol per eye”, 280 pmol per eye and “undetectable”, respectively.
